Ends that are not written are not given here.
Assays:
ERβ [1] = target: T1, ERβ (Homo sapiens, UniProt Q92731); experiment: IL-6-luc transcription in HeLa cells transfected with ERβ; assay type: cell-based; set-up: expressed in transfected cells; host or cells: HeLa; conditions: ERβ carrying HeLa cells, 10^−8 M E2
Text: (§1) A. HeLa cells were transiently transfected with the ERα expression vector alone or together with a vector carrying a fusion of the α-II peptide with the GAL4 DNA binding domain driven by the SV40 promoter. In addition, cells were transfected with ERE-luc or IL-6-luc for the transcription studies; or with EGFP-nuc for the apoptosis experiments. […] B. HeLa cells were transfected with ERα or ERβ alone or together with expression vectors carrying 2X293 or 2XF6 peptides. […] C. HeLa cells were transfected with a vector carrying the GRIP peptide alone or together with ERα.
(§2) DNA constructs. […] Bio. […] The sequence for peptide αII is […] (SEQ ID NO.: 1). […] (SEQ ID NO.: 3). The sequence for GRIP is […] […] […] (SEQ ID NO.: 4). […] The forward primer contained the restriction site for SalI and the ERα Kozak sequence and the reverse primer contained the BamH1 restriction site. Amplified PCR products were subcloned into the SalI/BamH1 restriction site of pCMV.
(§3) Transient transfections. HeLa cells were plated at 5×10^4/cm^2 and after 16-24 hours were transfected with a total amount of 3 μg of DNA using Lipofectamine (Life Technologies Inc). Following a 4-6 hours of incubation, the transfection mix was replaced with fresh medium containing 10% charcoal-stripped serum and treatments were initiated.

ERβ [2] = target: T1, ERβ; experiment: ERE-luc transcription in HeLa cells transfected with ERβ; assay type: cell-based; set-up: expressed in transfected cells; host or cells: HeLa; conditions: ERβ carrying HeLa cells, 10^−8 M E2
Text: as §1, §2, §3

ERβ [3] = target: T1, ERβ; experiment: Etoposide-induced apoptosis in HeLa cells transfected with ERβ
ERα = target: T2, ERα (Homo sapiens, UniProt P03372); experiment: Etoposide-induced apoptosis in HeLa cells transfected with ERα; conditions: peptide co-transfected, 10^−8 M E2
T2 sequence (P03372 1-595): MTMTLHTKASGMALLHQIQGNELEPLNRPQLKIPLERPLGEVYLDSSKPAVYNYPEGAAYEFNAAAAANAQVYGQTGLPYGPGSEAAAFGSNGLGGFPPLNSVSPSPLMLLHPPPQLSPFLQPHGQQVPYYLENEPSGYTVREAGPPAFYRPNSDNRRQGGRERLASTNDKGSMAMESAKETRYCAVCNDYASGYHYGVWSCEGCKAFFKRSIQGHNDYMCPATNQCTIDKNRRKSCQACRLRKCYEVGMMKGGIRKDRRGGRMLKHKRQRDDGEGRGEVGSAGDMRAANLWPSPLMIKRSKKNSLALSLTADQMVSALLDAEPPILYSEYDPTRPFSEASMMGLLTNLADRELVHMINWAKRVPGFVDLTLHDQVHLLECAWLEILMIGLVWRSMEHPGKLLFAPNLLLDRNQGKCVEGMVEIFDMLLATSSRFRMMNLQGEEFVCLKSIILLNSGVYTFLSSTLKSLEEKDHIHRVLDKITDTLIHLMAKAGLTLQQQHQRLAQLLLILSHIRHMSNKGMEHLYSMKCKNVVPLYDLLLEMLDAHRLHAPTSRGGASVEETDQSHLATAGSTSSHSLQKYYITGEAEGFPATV

[4] = test system: HeLa cells transfected with the vector without receptor (empty vector, ev); experiment: Etoposide-induced apoptosis in HeLa cells transfected with empty vector; conditions: 10^−12M to 10^−8 M
[5] = test system: embryonic fibroblasts derived from Src−/− mice; experiment: Apoptosis in embryonic fibroblasts from Src−/− mice; assay type: cell-based; conditions: ER- and AR-expressing, also lack yes and Fyn
Description: Cell lysates were obtained and proteins were analyzed by Western blot analysis using anti-ERK1/2 or anti-phospho-ERK1/2 (p-ERK1/2) antibodies. […] After 30 min, etoposide was added and apoptosis was assayed 6 hours later as in FIG. 1B. […] RT-PCR was performed as described in the experimental procedures. C-E. HeLa cells were transfected with Nuc-EGFP and with expression vectors encoding the full length ERα or its E domain, or the AR alone (C, left panel) or together with a dn MEK (C, right panel); a Src mutant lacking the kinase activity (Src K^−), a Src mutant lacking the SH2 domain (Src ΔSH2), or a Src mutant lacking the SH3 domain (Src ΔSH3) (D); or with ERα together with wt Shc, or the dn Shc mutants Y239F/Y240F/Y317F (Shc FFF), Y317F (Shc YYF) or Y239F/Y240F (Shc FFY) (E). Bars represent means±SD of triplicate determinations. *p<0.05 versus cells cultured without steroids, by ANOVA.
Quantification of apoptotic cells in vitro. Apoptotic cells were quantified either by trypan blue staining or by direct visualization of changes in nuclear morphology (in the case of transfected HeLa cells), as previously described (Plotkin,L. et al. (1999). J.
RT-PCR analysis of the ERs and AR in embryonic fibroblasts. […]

[6] = test system: calvaria-derived murine osteoblastic cells; experiment: Apoptosis of calvaria-derived osteoblastic cells (trypan blue)
[7] = test system: osteocytic cell line MLO-Y4; experiment: Apoptosis of MLO-Y4 osteocytic cells (trypan blue); assay type: cell-based
ERK1/2 = experiment: ERK phosphorylation in MLO-Y4 cells (Western blot); assay type: cell-based; conditions: for effect of inhibitor on induction of ERK phosphorylation by E2 or DHT: inhibitor 25 min, then 5 min E2 or DHT
Description: Western blot analysis. The phosphorylation status of ERK1/2 was analyzed by immunoblotting using a mouse monoclonal antibody recognizing tyrosine phosphorylated ERK1/2, or a rabbit polyclonal antibody recognizing total ERK1/2, followed by incubation with either an anti-mouse or an anti-rabbit antibody conjugated with horseradish peroxidase (Santa Cruz Biotechnology).

AR = target: T3, AR (Homo sapiens, UniProt P10275); experiment: Etoposide-induced apoptosis in HeLa cells transfected with AR
T3 sequence (P10275 1-920): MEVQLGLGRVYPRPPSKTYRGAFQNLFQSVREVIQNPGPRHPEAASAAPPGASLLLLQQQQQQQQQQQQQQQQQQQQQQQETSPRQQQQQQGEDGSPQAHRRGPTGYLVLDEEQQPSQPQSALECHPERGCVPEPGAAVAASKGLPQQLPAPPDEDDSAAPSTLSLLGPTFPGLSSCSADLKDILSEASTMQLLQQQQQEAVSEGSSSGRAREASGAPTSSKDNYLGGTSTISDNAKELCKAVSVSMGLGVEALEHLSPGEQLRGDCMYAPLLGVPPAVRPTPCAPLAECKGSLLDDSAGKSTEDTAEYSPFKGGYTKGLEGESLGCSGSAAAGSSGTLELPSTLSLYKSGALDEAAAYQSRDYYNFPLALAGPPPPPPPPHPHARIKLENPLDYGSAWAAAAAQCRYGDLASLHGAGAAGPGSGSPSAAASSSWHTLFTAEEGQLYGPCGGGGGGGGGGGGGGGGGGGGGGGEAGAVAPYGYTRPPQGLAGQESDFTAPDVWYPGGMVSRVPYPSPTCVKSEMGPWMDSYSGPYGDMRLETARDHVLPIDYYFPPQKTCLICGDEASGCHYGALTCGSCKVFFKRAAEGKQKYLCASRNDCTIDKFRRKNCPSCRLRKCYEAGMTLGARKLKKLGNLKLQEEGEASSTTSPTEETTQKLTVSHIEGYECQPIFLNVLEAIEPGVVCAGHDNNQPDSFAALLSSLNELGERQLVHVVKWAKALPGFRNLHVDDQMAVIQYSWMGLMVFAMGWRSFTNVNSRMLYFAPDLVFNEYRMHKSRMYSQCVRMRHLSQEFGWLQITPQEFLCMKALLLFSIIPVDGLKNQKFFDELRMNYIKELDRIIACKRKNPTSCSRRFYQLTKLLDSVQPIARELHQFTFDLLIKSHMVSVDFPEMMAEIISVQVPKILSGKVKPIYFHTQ

T1 sequence (Q92731 whole entry, species assumed, the tested form may be a part): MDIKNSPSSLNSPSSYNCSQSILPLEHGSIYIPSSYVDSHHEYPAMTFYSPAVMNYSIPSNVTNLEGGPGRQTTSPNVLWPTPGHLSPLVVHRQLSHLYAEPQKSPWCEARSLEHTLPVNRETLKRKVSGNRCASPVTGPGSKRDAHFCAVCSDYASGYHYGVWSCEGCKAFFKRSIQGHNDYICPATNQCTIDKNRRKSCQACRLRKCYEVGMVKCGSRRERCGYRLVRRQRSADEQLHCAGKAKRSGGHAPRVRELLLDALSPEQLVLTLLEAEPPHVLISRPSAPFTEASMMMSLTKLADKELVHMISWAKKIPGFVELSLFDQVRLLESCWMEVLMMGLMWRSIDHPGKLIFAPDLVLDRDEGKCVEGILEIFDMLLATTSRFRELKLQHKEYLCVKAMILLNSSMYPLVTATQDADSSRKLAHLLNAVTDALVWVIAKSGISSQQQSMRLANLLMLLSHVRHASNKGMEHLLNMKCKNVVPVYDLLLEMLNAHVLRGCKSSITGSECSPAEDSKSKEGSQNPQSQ

## 293: ERβ-specific peptide SSIKDFPNLISLLSR (SEQ ID NO.: 2); two copies expressed fused to GAL4 DNA binding domain (also: two copies fused to GAL4 DNA binding domain) [compound 293]
ERβ [1]
  effect of peptide on E2 effect on IL-6-Luc transcription: blocked
ERβ [2]
  effect of peptide on E2-induced ERE-Luc transcription: blocked
ERβ [3]; peptide co-transfected, 10^−8 M E2
  effect of peptide on the anti-apoptotic activity of ERβ (E2): did block
ERα
  effect of peptide on the anti-apoptotic activity of ERα (E2): did not have an effect

## C[C@]12CCC(=O)C[C@@H]1CC[C@@H]1[C@@H]2CC[C@]2(C)[C@@H](O)CC[C@@H]12 [DHT, 5β-dihydrotestosterone]
[4]
  effect on etoposide-induced apoptosis: Neither E2 nor DHT (10^−12M to 10^−8 M) had an effect
[5]
  anti-apoptotic effect in Src−/− fibroblasts (unlike Src+/+ wild type controls): unresponsive
[6]; 10^−8 M steroid
  prevention of apoptosis induced by etoposide, dexamethasone or TNFα: prevented apoptosis
ERβ [3]; HeLa transfected with ERβ
  prevention of etoposide-induced apoptosis: prevented apoptosis in a dose-dependent manner
[7]; 10^−8 M steroid
  prevention of apoptosis induced by etoposide, dexamethasone or TNFα: prevented apoptosis
[7]; not shown
  dose-dependent inhibition of etoposide-induced apoptosis compared with calvaria cells: identical results
ERK1/2; MLO-Y4 cells
  time of maximal effect on phosphorylation of ERKs: 5 min

## C[C@]12CC[C@@H]3c4ccc(O)cc4C[C@@H](CCCCCCCCC[S+]([O-])CCCC(F)(F)C(F)(F)F)[C@H]3[C@@H]1CC[C@@H]2O (some centres unmarked) [ICI 182,780]
[6]; antagonist pre-treatment 30 min, 10^−8 M DHT, etoposide
  effect of antagonist on the anti-apoptotic effect of DHT: blocked
[6]; antagonist pre-treatment 30 min, 10^−8 M E2, etoposide
  effect of antagonist on the anti-apoptotic effect of E2: blocked
AR
  effect of antagonist/inhibitor on the anti-apoptotic effect of E2 or DHT: abrogated

## Cc1ccc(-c2nn(C(C)(C)C)c3ncnc(N)c23)cc1 [PP1]
[7]; inhibitor 30 min prior to E2 or DHT, etoposide 6 hours
  effect of inhibitor on the anti-apoptotic effect of E2 and DHT: completely abrogated
ERK1/2
  effect of inhibitor on induction of ERK phosphorylation by E2 or DHT: blocked

## N#CC(=C(/N)Sc1ccccc1N)/C(C#N)=C(/N)Sc1ccccc1N [UO 126]
ERK1/2
  effect of inhibitor on induction of ERK phosphorylation by E2 or DHT: blocked

— patent publication US20020137209A1, “Methods of dissociating nongenotropic from genotropic activity of steroid receptors” (priority 2000, published 2002)
